Measured values from patent publication US6916478B2, “Vaccines and pharmaceutical compositions using membrane vesicles of microorganisms, and methods for preparing same” (priority 1995, dated 2005).

What was measured:
[1] = test system: P. aeruginosa strain ATCC 19660; test: Antibiotic susceptibility test (MIC of gentamicin by dilution in MHB); assay type: cell-based, Pseudomonas aeruginosa; conditions: strain ATCC 19660, dilution in MHB
Method: (§1) Antibiotic susceptibility test. The Minimum Inhibitory Concentrations (MICs) of gentamicin were determined by dilution in MHB. The MICs for strains H 103 and ATCC 19660 were 2 and 2.5 μg/ml, respectively.

[2] = test system: P. aeruginosa strain H 103; test: as above; assay type: cell-based, Pseudomonas aeruginosa; conditions: strain H 103, dilution in MHB
Method: as §1

P. aeruginosa 8803 [3] = test: Antibiotic susceptibility (broth dilution in Muller-Hinton broth); assay type: cell-based, Pseudomonas aeruginosa; conditions: 8803 (permeability-type gentamicin resistance)
Method: (§2) Antibiotic susceptibility. The susceptibilities of bacterial strains to gentamicin (Sigma) were determined by broth dilution method in Muller-Hinton broth (Kadurugamuwa, J. L. et al, 1993 Antimicrob. Agents Chemother. 37:715-721). The MICs for PAO1, 8803, D2C, and DH5α were 2, 128 (10), 1.0, and 1.0 μg/ml, respectively.

P. aeruginosa PAO1 [4] = test: as above; assay type: cell-based, Pseudomonas aeruginosa
Method: as §2

Escherichia coli DH5α = test: as above; assay type: cell-based
Method: as §2

[5] = test system: Staphylococcus aureus Newman D2C; test: as above; assay type: cell-based
Method: as §2

[6] = test system: intracellular S. flexneri; test: g-MV effect on intracellular S. flexneri in infected human colonic epithelial cells; assay type: cell-based, Shigella flexneri; conditions: FIG. 17
Method: Incubation of g-MVs (25 μg MV protein/25 cm^2 cover slip) with S. flexneri infected human colonic epithelial cells (10^7 CFU/25 cm^2 cover slip) (Kadurugamuwa et al, 1991 Infect. Immun. 59:3464-3471) inhibited the multiplication of intracellular bacteria by approximately 88% in the first hour of incubation (FIG. 17). […] Gentamicin could only enter these cells because it was packaged into a bilayered MV which could […] with the otherwise impermeable membrane and liberate its contents into the cytoplasm. Soluble antibiotic had no effect on growth of intracellular bacteria confirming the impermeability of eucaryotic cell membrane to the antibiotic (FIG. 17). […] The small effect of n-MVs on intracellular bacteria was presumably due to murein hydrolases in n-MVs.

P. aeruginosa 8803 [7] = test: Bactericidal activity (viable counting 0-5 h); assay type: cell-based, Pseudomonas aeruginosa; conditions: MVs 100 μg protein/ml, gentamicin 100 μg/ml, FIG. 23(d)
Method: (§3) Bacteriolytic activity. […] Exponential growth phase cultures grown in TSB were diluted in fresh TSB to produce a bacterial suspension of 10^8 CFU/ml.

P. aeruginosa PAO1 [8] = test: Bactericidal activity (viable counting 0-5 h); assay type: cell-based, Pseudomonas aeruginosa; conditions: MVs 100 μg protein/ml, gentamicin 2.5×MIC, FIG. 23(c)
Method: as §3

## gentamicin
[1]
  Minimum Inhibitory Concentration (MIC): 2.5 µg/mL
[2]
  Minimum Inhibitory Concentration (MIC): 2 µg/mL
P. aeruginosa 8803 [3]
  MIC: 128 µg/mL
P. aeruginosa PAO1 [4]
  MIC: 2 µg/mL
Escherichia coli DH5α
  MIC: 1.0 µg/mL
[5]
  MIC: 1.0 µg/mL
[6]
  effect on growth of intracellular bacteria: no effect
P. aeruginosa 8803 [7]
  lytic effect on P. aeruginosa 8803 culture: (almost) direct correspondence between the control culture and the culture subjected to soluble gentamicin
P. aeruginosa PAO1 [8]
  loss of viability of P. aeruginosa PAO1: exquisitely sensitive
